Among the data in ChEMBL document CHEMBL1157463, “Interaction of methimazole with I2: X-ray crystal structure of the charge transfer complex methimazole-I2. implications for the mechanism of action of methimazole-based antithyroid drugs” (J Med Chem, 2008) are IC50 values, retold here.

The nature of the assay: Antioxidant activity assessed as inhibition of lactoperoxidase-catalyzed oxidation of 2,2'-azinobis([…]). The format is functional.

Structures are written as SMILES.

On to `Cn1cc[nH][c+]1SS[c+]1[nH]ccn1C.[O-][Cl+3]([O-])([O-])[O-].[O-][Cl+3]([O-])([O-])[O-]`, for which the IC50 turned out to be 1.4 µM.

Turning to `Cn1ccnc1S` [METHIMAZOLE], the IC50 was 5.6 µM.

As usually defined, the IC50 is the concentration that gives 50% inhibition.
